Experimental data from the NIST ThermoML archive (doi:10.1016/j.fluid.2014.09.014).

Experiment: refractive index (other wavelength) (dimensionless); xn = mol fraction of the nth substance listed
Conditions: 101 kPa, Liquid, Standard Abbe refractometry

CC(C)OC(C)C [diisopropyl ether] + CO
Conditions	refractive index
313.15 K, Wavelength=644 nm, x2 = 0.9527	1.32574
313.15 K, Wavelength=644 nm, x2 = 0.9773	1.32248
313.15 K, Wavelength=644 nm, x2 = 0.989	1.3213
313.15 K, Wavelength=644 nm, x2 = 0.9964	1.32034
313.15 K, Wavelength=706.5 nm, x2 = 0	1.35401
313.15 K, Wavelength=706.5 nm, x2 = 0.0423	1.35395
313.15 K, Wavelength=706.5 nm, x2 = 0.0424	1.35398
313.15 K, Wavelength=706.5 nm, x2 = 0.082	1.35392
313.15 K, Wavelength=706.5 nm, x2 = 0.0822	1.35411
313.15 K, Wavelength=706.5 nm, x2 = 0.1171	1.35398
313.15 K, Wavelength=706.5 nm, x2 = 0.1271	1.35399
313.15 K, Wavelength=706.5 nm, x2 = 0.1827	1.35378
313.15 K, Wavelength=706.5 nm, x2 = 0.2162	1.35364
313.15 K, Wavelength=706.5 nm, x2 = 0.251	1.35322
313.15 K, Wavelength=706.5 nm, x2 = 0.3298	1.35329
313.15 K, Wavelength=706.5 nm, x2 = 0.3577	1.35251
313.15 K, Wavelength=706.5 nm, x2 = 0.4497	1.35124
313.15 K, Wavelength=706.5 nm, x2 = 0.4525	1.35165
313.15 K, Wavelength=706.5 nm, x2 = 0.522	1.34954
313.15 K, Wavelength=706.5 nm, x2 = 0.609	1.34648
313.15 K, Wavelength=706.5 nm, x2 = 0.6529	1.34501
313.15 K, Wavelength=706.5 nm, x2 = 0.7504	1.34121
313.15 K, Wavelength=706.5 nm, x2 = 0.804	1.33693
313.15 K, Wavelength=706.5 nm, x2 = 0.807	1.33702
313.15 K, Wavelength=706.5 nm, x2 = 0.8727	1.33354
313.15 K, Wavelength=706.5 nm, x2 = 0.9233	1.32582
313.15 K, Wavelength=706.5 nm, x2 = 0.9253	1.32745
313.15 K, Wavelength=706.5 nm, x2 = 0.9527	1.32454
313.15 K, Wavelength=706.5 nm, x2 = 0.9773	1.32131
313.15 K, Wavelength=706.5 nm, x2 = 0.989	1.32103
313.15 K, Wavelength=706.5 nm, x2 = 0.9964	1.31919
318.15 K, Wavelength=40.47 nm, x2 = 0	1.36447
318.15 K, Wavelength=40.47 nm, x2 = 0.0423	1.36444
318.15 K, Wavelength=40.47 nm, x2 = 0.0424	1.3644
318.15 K, Wavelength=40.47 nm, x2 = 0.082	1.36442
318.15 K, Wavelength=40.47 nm, x2 = 0.0822	1.36413
318.15 K, Wavelength=40.47 nm, x2 = 0.1171	1.36444
318.15 K, Wavelength=40.47 nm, x2 = 0.1271	1.36445
318.15 K, Wavelength=40.47 nm, x2 = 0.1827	1.36427
318.15 K, Wavelength=40.47 nm, x2 = 0.2162	1.36415
318.15 K, Wavelength=40.47 nm, x2 = 0.251	1.3636
318.15 K, Wavelength=40.47 nm, x2 = 0.3298	1.36408
318.15 K, Wavelength=40.47 nm, x2 = 0.3577	1.36296
318.15 K, Wavelength=40.47 nm, x2 = 0.4497	1.36174
318.15 K, Wavelength=40.47 nm, x2 = 0.4525	1.36248
318.15 K, Wavelength=40.47 nm, x2 = 0.522	1.35999
318.15 K, Wavelength=40.47 nm, x2 = 0.5543	1.35901
318.15 K, Wavelength=40.47 nm, x2 = 0.609	1.35666
318.15 K, Wavelength=40.47 nm, x2 = 0.6529	1.35514
318.15 K, Wavelength=40.47 nm, x2 = 0.7504	1.35095
318.15 K, Wavelength=40.47 nm, x2 = 0.804	1.34473
318.15 K, Wavelength=40.47 nm, x2 = 0.807	1.3465
318.15 K, Wavelength=40.47 nm, x2 = 0.8727	1.34338
318.15 K, Wavelength=40.47 nm, x2 = 0.9233	1.33515
318.15 K, Wavelength=40.47 nm, x2 = 0.9253	1.33682
318.15 K, Wavelength=40.47 nm, x2 = 0.9527	1.33369
318.15 K, Wavelength=40.47 nm, x2 = 0.9773	1.33062
318.15 K, Wavelength=40.47 nm, x2 = 0.989	1.32932
318.15 K, Wavelength=40.47 nm, x2 = 0.9964	1.32844
318.15 K, Wavelength=435.8 nm, x2 = 0	1.36157
318.15 K, Wavelength=435.8 nm, x2 = 0.0423	1.36155
318.15 K, Wavelength=435.8 nm, x2 = 0.0424	1.36152
318.15 K, Wavelength=435.8 nm, x2 = 0.082	1.36153
318.15 K, Wavelength=435.8 nm, x2 = 0.0822	1.36167
318.15 K, Wavelength=435.8 nm, x2 = 0.1171	1.36159
318.15 K, Wavelength=435.8 nm, x2 = 0.1271	1.36158
318.15 K, Wavelength=435.8 nm, x2 = 0.1827	1.3614
318.15 K, Wavelength=435.8 nm, x2 = 0.2162	1.36132
318.15 K, Wavelength=435.8 nm, x2 = 0.251	1.36074
318.15 K, Wavelength=435.8 nm, x2 = 0.3298	1.36122
318.15 K, Wavelength=435.8 nm, x2 = 0.3577	1.36012
318.15 K, Wavelength=435.8 nm, x2 = 0.4497	1.35893
318.15 K, Wavelength=435.8 nm, x2 = 0.4525	1.35967
318.15 K, Wavelength=435.8 nm, x2 = 0.522	1.3572
318.15 K, Wavelength=435.8 nm, x2 = 0.5543	1.35624
318.15 K, Wavelength=435.8 nm, x2 = 0.609	1.35398
318.15 K, Wavelength=435.8 nm, x2 = 0.6529	1.35244
318.15 K, Wavelength=435.8 nm, x2 = 0.7504	1.34832
318.15 K, Wavelength=435.8 nm, x2 = 0.804	1.34218
318.15 K, Wavelength=435.8 nm, x2 = 0.807	1.34393
318.15 K, Wavelength=435.8 nm, x2 = 0.8727	1.34082
318.15 K, Wavelength=435.8 nm, x2 = 0.9233	1.33279
318.15 K, Wavelength=435.8 nm, x2 = 0.9253	1.33442
318.15 K, Wavelength=435.8 nm, x2 = 0.9527	1.33136
318.15 K, Wavelength=435.8 nm, x2 = 0.9773	1.32834
318.15 K, Wavelength=435.8 nm, x2 = 0.989	1.32708
318.15 K, Wavelength=435.8 nm, x2 = 0.9964	1.32617
318.15 K, Wavelength=486.1 nm, x2 = 0	1.35832
318.15 K, Wavelength=486.1 nm, x2 = 0.0423	1.35829
318.15 K, Wavelength=486.1 nm, x2 = 0.0424	1.35828
318.15 K, Wavelength=486.1 nm, x2 = 0.082	1.35827
318.15 K, Wavelength=486.1 nm, x2 = 0.0822	1.35838
318.15 K, Wavelength=486.1 nm, x2 = 0.1171	1.35824
318.15 K, Wavelength=486.1 nm, x2 = 0.1271	1.35832
